Assay results: publication PMC6783499, “Heteroglycoclusters With Dual Nanomolar Affinities for the Lectins LecA and LecB From Pseudomonas aeruginosa” (Frontiers in Chemistry, 2019)
Values joined by “and” are separate entries in the source; they are usually repeats but may differ in a detail not shown here. Equal values may be shown once.

Molecular target: T1, LecA (Pseudomonas aeruginosa, UniProt Q05097)
T1 construct: made in house; host or cells: Escherichia coli BL21(DE3)
Test: biochemical
Type: binding
Settings: for –ΔH (binding enthalpy) / n (stoichiometry, glycocluster molecules per lectin monomer) / –ΔG / –ΔH / −TΔS: ITC; for n (stoichiometry, glycocluster molecules per lectin monomer) / –ΔG / –ΔH / −TΔS: 25°C; for n (stoichiometry, glycocluster molecules per lectin monomer): pH 7.5; for –ΔG / –ΔH / −TΔS: per mole of glycocluster; for α (relative potency compared to the monovalent compound) / β (relative potency per sugar unit): relative to βGal-OMe
Protocol: The resulting hGCs were tested in solution with lectins by Isothermal Titration Calorimetry (Table 1) and their binding properties were compared with homoclusters 15–20 (Berthet et al., [2013]; Thomas et al., [2015b]) displaying either 4 and 16 βGal or αFuc units attached with an oxime or a triazole linker (Figure 3). […] Experiments were performed in direct injection mode (i.e., ligand in syringe and protein in cell) to minimize aggregation problems.
All chemical reagents were purchased from Aldrich (Saint Quentin Fallavier, France) or Acros (Noisy-Le-Grand, France). All protected amino acids and Fmoc-Gly-Sasrin® resin was obtained from Advanced ChemTech Europe (Brussels, Belgium). For peptides and glycopeptides, analytical RP-HPLC was performed on Waters system equipped with a Waters 2695 separations module and a Waters 2487 Dual Absorbance UV/Visible Detector. Analysis was carried out at 1.0 mL/min (EC 125/3 nucleosil 300-5 C18) with UV monitoring at 214 nm and 250 nm using a linear A–B gradient (buffer A: 0.09% CF3CO2H in water; buffer B: 0.09% CF3CO2H in 90% acetonitrile). Purifications were carried out at 22.0 mL/min (VP 250/21 nucleosil 100-7 C18) with UV monitoring at 214 nm and 250 nm using a linear A–B gradient. HRMS and ESI-MS and HRMS spectra of peptides and glycopeptides were measured on an Esquire 3000 spectrometer from Bruker. Lectins LecA and LecB were produced in recombinant form in Escherichia coli BL21(DE3) as described previously (Mitchell et al., [2005]; Blanchard et al., [2008]).
Other compounds were assayed with a VP-ITC isothermal titration calorimeter (Microcal). The experiments were carried out at 25°C. All glycocompounds and lectins LecB and LecA were dissolved in the same buffer composed of 20 mM Tris with 100 mM NaCl and 0.1 mM CaCl2 at pH 7.5. For PEAQ-ITC, the lectins were placed in the microcalorimeter cell (200 μL) at concentrations varying from 35 to 70 μM. […] For VP-ITC, the microcalorimeter cell (1.447 mL) contained the lectins with concentrations between 30 and 100 μM. […] The experimental data were fitted to a theoretical titration curve using the Microcal PEAQ-ITC analysis software, with ΔH (enthalpy change), Ka (association constant), and N (number of binding sites per monomer) as adjustable parameters. Dissociation constant (Kd), free energy change (ΔG), and entropy contributions (TΔS) were derived from the previous ones. Two or three independent titrations were performed for each ligand tested.

T1 sequence (Q05097 whole entry): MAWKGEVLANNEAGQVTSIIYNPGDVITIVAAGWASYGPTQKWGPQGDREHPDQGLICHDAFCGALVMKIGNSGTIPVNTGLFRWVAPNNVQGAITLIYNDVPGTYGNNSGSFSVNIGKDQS

Row | Compound | Kd [nM] | –ΔH (binding enthalpy) (LecA) [kcal/mol] | n (stoichiometry, glycocluster molecules per lectin monomer) (LecA) | –ΔG (LecA) [kcal/mol] | –ΔH (LecA) [kcal/mol] | −TΔS (LecA) [kcal/mol] | α (relative potency compared to the monovalent compound) (LecA) | β (relative potency per sugar unit) (LecA) | lower β factor than 18 (LecA, 20 versus 18) | binding to LecA in words (LecA, abstract)
1 | C[C@@H]1NC(=O)[C@H](CCCCNC(=O)/C=N/O[C@H]2O[C@H](CO)[C@@H](O)[C@H](O)[C@@H]2O)NC(=O)CNC(=O)[C@@H]2CCCN2C(=O)[C@H](CCCCNC(=O)/C=N/O[C@H]2O[C@H](CO)[C@@H](O)[C@H](O)[C@@H]2O)NC(=O)[C@H](CCCCNC(=O)CO/N=C/C(=O)NCCCC[C@@H]2NC(=O)CNC(=O)[C@@H]3CCCN3C(=O)[C@H](CCCCNC(=O)/C=N/OCC(=O)NCCCC[C@@H]3NC(=O)[C@H](CCCCNC(=O)/C=N/O[C@H]4O[C@H](CO)[C@@H](O)[C@H](O)[C@@H]4O)NC(=O)CNC(=O)[C@@H]4CCCN4C(=O)[C@H](CCCCNC(=O)/C=N/O[C@H]4O[C@H](CO)[C@@H](O)[C@H](O)[C@@H]4O)NC(=O)[C@H](C)NC(=O)[C@H](CCCCNC(=O)/C=N/O[C@H]4O[C@H](CO)[C@@H](O)[C@H](O)[C@@H]4O)NC(=O)CNC(=O)[C@@H]4CCCN4C(=O)[C@H](CCCCNC(=O)/C=N/O[C@H]4O[C@H](CO)[C@@H](O)[C@H](O)[C@@H]4O)NC3=O)NC(=O)[C@H](CCCCN)NC(=O)[C@H](CCCCNC(=O)CO/N=C/C(=O)NCCCC[C@@H]3NC(=O)[C@H](CCCCn4cc(CO[C@@H]5O[C@H](CO)[C@H](O)[C@H](O)[C@H]5O)nn4)NC(=O)CNC(=O)[C@@H]4CCCN4C(=O)[C@H](CCCCn4cc(CO[C@@H]5O[C@H](CO)[C@H](O)[C@H](O)[C@H]5O)nn4)NC(=O)[C@H](C)NC(=O)[C@H](CCCCn4cc(CO[C@@H]5O[C@H](CO)[C@H](O)[C@H](O)[C@H]5O)nn4)NC(=O)CNC(=O)[C@@H]4CCCN4C(=O)[C@H](CCCCn4cc(CO[C@@H]5O[C@H](CO)[C@H](O)[C@H](O)[C@H]5O)nn4)NC3=O)NC(=O)CNC(=O)[C@@H]3CCCN3C(=O)[C@H](CCCCNC(=O)CO/N=C/C(=O)NCCCC[C@@H]3NC(=O)[C@H](CCCCn4cc(CO[C@@H]5O[C@H](CO)[C@H](O)[C@H](O)[C@H]5O)nn4)NC(=O)CNC(=O)[C@@H]4CCCN4C(=O)[C@H](CCCCn4cc(CO[C@@H]5O[C@H](CO)[C@H](O)[C@H](O)[C@H]5O)nn4)NC(=O)[C@H](C)NC(=O)[C@H](CCCCn4cc(CO[C@@H]5O[C@H](CO)[C@H](O)[C@H](O)[C@H]5O)nn4)NC(=O)CNC(=O)[C@@H]4CCCN4C(=O)[C@H](CCCCn4cc(CO[C@@H]5O[C@H](CO)[C@H](O)[C@H](O)[C@H]5O)nn4)NC3=O)NC(=O)[C@H](C)NC2=O)NC(=O)[C@H](CCCCNC(=O)/C=N/O[C@H]2O[C@H](CO)[C@@H](O)[C@H](O)[C@@H]2O)NC(=O)CNC(=O)[C@@H]2CCCN2C(=O)[C@H](CCCCNC(=O)/C=N/O[C@H]2O[C@H](CO)[C@@H](O)[C@H](O)[C@@H]2O)NC1=O [Compound 14] | 21 ± 4 | 51.6 to 58.1 | 0.16 | 10.5 | 58.13 ± 4.54 | 47.6 | 7,142 | 900 and 893 |  | 
2 | CO[C@@H]1O[C@H](CO)[C@H](O)[C@H](O)[C@H]1O [βGal-OMe, methyl β-D-galactoside] |  |  |  |  |  |  | 1 | 1 |  | 
3 | C[C@@H]1NC(=O)[C@H](CCCCn2cc(CO[C@@H]3O[C@H](CO)[C@H](O)[C@H](O)[C@H]3O)nn2)NC(=O)CNC(=O)[C@@H]2CCCN2C(=O)[C@H](CCCCn2cc(CO[C@@H]3O[C@H](CO)[C@H](O)[C@H](O)[C@H]3O)nn2)NC(=O)[C@H](CCCCN)NC(=O)[C@H](CCCCn2cc(CO[C@@H]3O[C@H](CO)[C@H](O)[C@H](O)[C@H]3O)nn2)NC(=O)CNC(=O)[C@@H]2CCCN2C(=O)[C@H](CCCCn2cc(CO[C@@H]3O[C@H](CO)[C@H](O)[C@H](O)[C@H]3O)nn2)NC1=O [Compound 18] |  |  | 0.26 | 10.5 | 33.22 ± 0.24 | 22.8 | 7,000 and 6,818 | 1,700 and 1,705 |  | 
4 | C[C@@H]1NC(=O)[C@H](CCCCNC(=O)/C=N/OCC(=O)NCCCC[C@@H]2NC(=O)[C@H](CCCCn3cc(CO[C@@H]4O[C@H](CO)[C@H](O)[C@H](O)[C@H]4O)nn3)NC(=O)CNC(=O)[C@@H]3CCCN3C(=O)[C@H](CCCCn3cc(CO[C@@H]4O[C@H](CO)[C@H](O)[C@H](O)[C@H]4O)nn3)NC(=O)[C@H](C)NC(=O)[C@H](CCCCn3cc(CO[C@@H]4O[C@H](CO)[C@H](O)[C@H](O)[C@H]4O)nn3)NC(=O)CNC(=O)[C@@H]3CCCN3C(=O)[C@H](CCCCn3cc(CO[C@@H]4O[C@H](CO)[C@H](O)[C@H](O)[C@H]4O)nn3)NC2=O)NC(=O)CNC(=O)[C@@H]2CCCN2C(=O)[C@H](CCCCNC(=O)/C=N/OCC(=O)NCCCC[C@@H]2NC(=O)[C@H](CCCCn3cc(CO[C@@H]4O[C@H](CO)[C@H](O)[C@H](O)[C@H]4O)nn3)NC(=O)CNC(=O)[C@@H]3CCCN3C(=O)[C@H](CCCCn3cc(CO[C@@H]4O[C@H](CO)[C@H](O)[C@H](O)[C@H]4O)nn3)NC(=O)[C@H](C)NC(=O)[C@H](CCCCn3cc(CO[C@@H]4O[C@H](CO)[C@H](O)[C@H](O)[C@H]4O)nn3)NC(=O)CNC(=O)[C@@H]3CCCN3C(=O)[C@H](CCCCn3cc(CO[C@@H]4O[C@H](CO)[C@H](O)[C@H](O)[C@H]4O)nn3)NC2=O)NC(=O)[C@H](CCCCN)NC(=O)[C@H](CCCCNC(=O)/C=N/OCC(=O)NCCCC[C@@H]2NC(=O)[C@H](CCCCn3cc(CO[C@@H]4O[C@H](CO)[C@H](O)[C@H](O)[C@H]4O)nn3)NC(=O)CNC(=O)[C@@H]3CCCN3C(=O)[C@H](CCCCn3cc(CO[C@@H]4O[C@H](CO)[C@H](O)[C@H](O)[C@H]4O)nn3)NC(=O)[C@H](C)NC(=O)[C@H](CCCCn3cc(CO[C@@H]4O[C@H](CO)[C@H](O)[C@H](O)[C@H]4O)nn3)NC(=O)CNC(=O)[C@@H]3CCCN3C(=O)[C@H](CCCCn3cc(CO[C@@H]4O[C@H](CO)[C@H](O)[C@H](O)[C@H]4O)nn3)NC2=O)NC(=O)CNC(=O)[C@@H]2CCCN2C(=O)[C@H](CCCCNC(=O)/C=N/OCC(=O)NCCCC[C@@H]2NC(=O)[C@H](CCCCn3cc(CO[C@@H]4O[C@H](CO)[C@H](O)[C@H](O)[C@H]4O)nn3)NC(=O)CNC(=O)[C@@H]3CCCN3C(=O)[C@H](CCCCn3cc(CO[C@@H]4O[C@H](CO)[C@H](O)[C@H](O)[C@H]4O)nn3)NC(=O)[C@H](C)NC(=O)[C@H](CCCCn3cc(CO[C@@H]4O[C@H](CO)[C@H](O)[C@H](O)[C@H]4O)nn3)NC(=O)CNC(=O)[C@@H]3CCCN3C(=O)[C@H](CCCCn3cc(CO[C@@H]4O[C@H](CO)[C@H](O)[C@H](O)[C@H]4O)nn3)NC2=O)NC1=O [Compound 20] |  | 90.3 | 0.09 | 10.7 | 90.49 ± 3.59 | 79.78 | 10,000 and 10,714 | 670 | 2.5 | nanomolar affinity
